≈ marks a conversion by molar mass, not a printed value.
How the values were obtained:
[1] = test system: Escherichia coli MOR 84-20; test: in vitro antibacterial MIC, agar plate dilution; type: cell-based; conditions: Escherichia coli, MOR8420, 18 h, 35° C., read-out: MIC
How it was run: (§1)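 Agar plate dilution on Mueller-Hinton agar, inoculum approximately 10^4 CFU per organism applied with a Steers replicator. MIC (mcg/ml) is the lowest compound concentration inhibiting visible growth after 18 hours at 35° C.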

[2] = test system: Staphylococcus aureus Smith; test: in vitro antibacterial MIC, agar plate dilution; type: cell-based; conditions: Staphylococcus aureus, 18 h, 35° C., read-out: MIC
How it was run: as §1

[3] = test system: Streptococcus faecalis VGH 84-65; test: in vitro antibacterial MIC, agar plate dilution; type: cell-based; conditions: Enterococcus faecalis, VGH8465, 18 h, 35° C., read-out: MIC
How it was run: as §1

[4] = test system: Morganella morganii MOR 84-45; test: in vitro antibacterial MIC, agar plate dilution; type: cell-based; conditions: Morganella morganii, MOR8445, 18 h, 35° C., read-out: MIC
How it was run: as §1

[5] = test system: Pseudomonas aeruginosa VGH 84-3; test: in vitro antibacterial MIC, agar plate dilution; type: cell-based; conditions: Pseudomonas aeruginosa, VGH843, 18 h, 35° C., read-out: MIC
How it was run: as §1

[6] = test system: Morganella morganii VHG 84-12; test: in vitro antibacterial MIC, agar plate dilution; type: cell-based; conditions: Morganella morganii, VHG8412, 18 h, Morganella morganii VHG 84-12 (VGH 84-12 for Example 131), 35° C., read-out: MIC
How it was run: as §1

[7] = test system: Enterobacter cloacae K 84-10; test: in vitro antibacterial MIC, agar plate dilution; type: cell-based; conditions: Enterobacter cloacae, K8410, 18 h, 35° C., read-out: MIC
How it was run: as §1

[8] = test system: Providencia stuarti CMC 83-3; test: in vitro antibacterial MIC, agar plate dilution; type: cell-based; conditions: Providencia, CMC833, 18 h, 35° C., read-out: MIC
How it was run: as §1

[9] = test system: Streptococcus faecalis UCI 85-30; test: in vitro antibacterial MIC, agar plate dilution; type: cell-based; conditions: Enterococcus faecalis, UCI8530, 18 h, 35° C., read-out: MIC
How it was run: as §1

[10] = test system: Enterobacter cloacae MOR 83-30; test: in vitro antibacterial MIC, agar plate dilution; type: cell-based; conditions: MOR8330, 18 hours, 35° C.
How it was run: as §1

[11] = test system: Staphylococcus aureus Smith; test: in vivo antibacterial activity of Example 131, survival of infected mice (Table IV); parameters: species or system Charles River CD-1 female mice
Protocol: (§2) The in vivo antibacterial activity of 1-cyclopropyl-6-fluoro-7-[3-(fluoromethyl)-1-piperazinyl]-1,4-dihydro-4-oxo-3-quinolinecarboxylic acid (Example 131) was established in the following test.
(§3) Charles River CD-1 female mice, weighing 20±2 g were infected with either Staphylococcus aureus Smith or Escherichia coli 311. A single oral or subcutaneous dose of 1-cyclopropyl-6-fluoro-7-[3-(fluoromethyl)-1-piperazinyl]-1,4-dihydro-4-oxo-3-quinolinecarboxylic acid was administered 1/2 hour after infection. […]

[12] = test system: Escherichia coli 311; test: as above; parameters: species or system Charles River CD-1 female mice
Protocol: as §2, §3

[13] = subcutaneous, 0.5 mg/kg single dose
[14] = subcutaneous, 1 mg/kg single dose
[15] = subcutaneous, 2 mg/kg single dose

SMILES | MIC [1] [µg/mL] | MIC [2] [µg/mL] | MIC [3] [µg/mL] | MIC [4] [µg/mL] | MIC [5] [µg/mL] | MIC [6] [µg/mL] | MIC [7] [µg/mL] | MIC [8] [µg/mL] | MIC [9] [µg/mL] | also measured
CN1CCN(c2c(F)c(F)c3c(=O)c(C(=O)O)cn(C4CC4)c3c2F)CC1 [Example 111, 1Cyclopropyl-5,6,8-trifluoro-1,4-dihydro-7-(4-methyl-1-piperazinyl) -4-oxo-3-quinolinecarboxylic acid] | 0.004 (≈ 0.0105 µM) | 0.25 (≈ 0.656 µM) | 4 (≈ 10.5 µM) | 0.004 (≈ 0.0105 µM) | 8 (≈ 21 µM) | 0.06 (≈ 0.157 µM) | 0.004 (≈ 0.0105 µM) | 4 (≈ 10.5 µM) | 2 (≈ 5.24 µM) | 
O=C(O)c1cn(C2CC2)c2cc(N3CCNC(c4cc[nH]n4)C3)c(F)cc2c1=O (stereo not shown) [Example 121, 1-Cyclopropyl-6-fluoro-1,4-dihydro-4-oxo-7-[3-(1H-pyrazol-3-yl)-1-piperazinyl]-3-quinolinecarboxylic acid] | 0.25 (≈ 0.629 µM) | 0.12 (≈ 0.302 µM) | 2 (≈ 5.03 µM) | 0.25 (≈ 0.629 µM) | > 16 | 4 (≈ 10.1 µM) | 0.25 (≈ 0.629 µM) | > 16 | 2 (≈ 5.03 µM) | 
CCn1cc(C(=O)O)c(=O)c2cc(F)c(N3CCNC(c4cccnc4)C3)cc21 (stereo not shown) [Example 122] | 1 (≈ 2.52 µM) | 0.12 (≈ 0.303 µM) | 8 (≈ 20.2 µM) | 1 (≈ 2.52 µM) | > 16 | 8 (≈ 20.2 µM) | 1 (≈ 2.52 µM) | > 16 | 8 (≈ 20.2 µM) | 
CCn1cc(C(=O)O)c(=O)c2cc(F)c(N3CCNC(c4ccncc4)C3)cc21 (stereo not shown) [Example 123] | 2 (≈ 5.05 µM) | 0.5 (≈ 1.26 µM) | 8 (≈ 20.2 µM) | 2 (≈ 5.05 µM) | > 16 | 8 (≈ 20.2 µM) | 2 (≈ 5.05 µM) | > 16 | > 16 | 
CN1CCN(c2cc3c(cc2F)c(=O)c(C(=O)O)cn3C2CC2)CC1C1CC1 (stereo not shown) [Example 125, 1-Cyclopropyl-7-(3-cyclopropyl-4-methyl-1-piperazinyl) -6-fluoro-1,4-dihydro-4-oxo-3-quinolinecarboxylic acid] | 0.25 (≈ 0.649 µM) | 0.12 (≈ 0.311 µM) | 4 (≈ 10.4 µM) | 0.5 (≈ 1.3 µM) | > 16 | 1 (≈ 2.59 µM) | 0.06 (≈ 0.156 µM) | > 16 | 8 (≈ 20.8 µM) | 
O=C(O)c1cn(C2CC2)c2cc(N3CCNC(CF)C3)c(F)cc2c1=O (stereo not shown) [Example 131, 1-Cyclopropyl-6-fluoro-7-[3-(fluoromethyl)-1-piperazinyl]-1,4-dihydro-4-oxo-3-quinolinecarboxylic acid] | 0.03 (≈ 0.0826 µM) | 0.06 (≈ 0.165 µM) | 1 (≈ 2.75 µM) | 0.12 (≈ 0.33 µM) | 8 (≈ 22 µM) | 0.12 (≈ 0.33 µM) | 0.03 (≈ 0.0826 µM) | 16 (≈ 44 µM) | 2 (≈ 5.5 µM) | MIC [10]: 0.12 µg/mL (≈ 0.33 µM); Survival Ratio 7 Days After Infection ([11]; oral, 1 mg/kg single dose): 0/15; Survival Ratio 7 Days After Infection ([11]; oral, 2 mg/kg single dose): 2/15; Survival Ratio 7 Days After Infection ([11]; oral, 4 mg/kg single dose): 10/15; Survival Ratio 7 Days After Infection ([11]; oral, 8 mg/kg single dose): 15/15; Survival Ratio 7 Days After Infection [11, 13]: 0/15; Survival Ratio 7 Days After Infection [11, 14]: 2/15; Survival Ratio 7 Days After Infection [11, 15]: 14/15; Survival Ratio 7 Days After Infection ([11]; subcutaneous, 4 mg/kg single dose): 15/15; Survival Ratio 7 Days After Infection ([12]; oral, 0.12 mg/kg single dose): 0/10; Survival Ratio 7 Days After Infection ([12]; oral, 0.25 mg/kg single dose): 1/10; Survival Ratio 7 Days After Infection ([12]; oral, 0.5 mg/kg single dose): 3/10; Survival Ratio 7 Days After Infection ([12]; oral, 1 mg/kg single dose): 7/10; Survival Ratio 7 Days After Infection ([12]; oral, 2 mg/kg single dose): 10/10; Survival Ratio 7 Days After Infection ([12]; subcutaneous, 0.12 mg/kg single dose): 0/10; Survival Ratio 7 Days After Infection ([12]; subcutaneous, 0.25 mg/kg single dose): 2/10; Survival Ratio 7 Days After Infection [12, 13]: 7/10; Survival Ratio 7 Days After Infection [12, 14]: 10/10; Survival Ratio 7 Days After Infection [12, 15]: 10/10

— patent publication US5210193A, “Piperazine derivatives” (American Cyanamid Company, priority 1990, dated 1993)
